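Values below derive from 48-hour exposures of cells grown in 96-well plates, with endpoints linearly interpolated between the two concentrations bracketing the appropriate inhibition level. GI50 marks 50% less growth.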 The source made the active and inactive calls. Rule as the data show it: active = GI50 up to about 1.1 µM and inactive = higher.
Key:
Assay in all cases: NCI-60 cell line screen, 48 h
786-0 = system: 786-0
A498 = system: A498
A549 = system: A549
ACHN = system: ACHN
CAKI-1 = system: CAKI-1
CCRF-CEM = system: CCRF-CEM
COLO 205 = system: COLO 205
DU-145 = system: DU-145
EKVX = system: EKVX
HCC 2998 = system: HCC 2998
HCT-116 = system: HCT-116
HCT-15 = system: HCT-15
HL-60 = system: HL-60
HOP-62 = system: HOP-62
HT-29 = system: HT-29
Hs-578T = system: Hs-578T
IGROV-1 = system: IGROV-1
K562 = system: K562
KM12 = system: KM12
LOX IMVI = system: LOX IMVI
M14 = system: M14
MCF7 = system: MCF7
MDA-MB-231 = system: MDA-MB-231
MDA-MB-435 = system: MDA-MB-435
MOLT-4 = system: MOLT-4
Malme-3M = system: Malme-3M
NCI-H226 = system: NCI-H226
NCI-H23 = system: NCI-H23
NCI-H460 = system: NCI-H460
NCI-H522 = system: NCI-H522
NCI/ADR-RES = system: NCI/ADR-RES
OVCAR-3 = system: OVCAR-3
OVCAR-4 = system: OVCAR-4
OVCAR-5 = system: OVCAR-5
OVCAR-8 = system: OVCAR-8
PC-3 = system: PC-3
RPMI-8226 = system: RPMI-8226
RXF 393 = system: RXF 393
SF-268 = system: SF-268
SF-295 = system: SF-295
SF-539 = system: SF-539
SK-MEL-28 = system: SK-MEL-28
SK-MEL-2 = system: SK-MEL-2
SK-MEL-5 = system: SK-MEL-5
SN12C = system: SN12C
SNB-19 = system: SNB-19
SNB-75 = system: SNB-75
SR = system: SR
SW-620 = system: SW-620
T47D = system: T47D
TK-10 = system: TK-10
U-251 = system: U-251
UACC-257 = system: UACC-257
UACC-62 = system: UACC-62
UO-31 = system: UO-31
HOP-92 = system: HOP-92
MDA-N = system: MDA-N
SK-OV-3 = system: SK-OV-3

Which GI50 (786-0) does the source give for CS/C(C#N)=C(\C#N)SC here?
Its GI50 is 4.89 µM (inactive).

And the GI50 (A498)?
The GI50 was 23 µM (inactive).

What about the GI50 (A549) of the same compound?
The GI50 was 30.4 µM (inactive).

What about the GI50 (ACHN) of the same compound?
The GI50 was 4.33 µM (inactive).

And the GI50 (CAKI-1)?
Its GI50 is 6.04 µM (inactive).

And the GI50 (CCRF-CEM)?
Its GI50 is 5.6 µM (inactive).

And the GI50 (COLO 205)?
Its GI50 is 3.06 µM (inactive).

What about the GI50 (DU-145) of the same compound?
The GI50 was 13.6 µM (inactive).

And the GI50 (EKVX)?
Its GI50 is 19 µM (inactive).

And the GI50 (HCC 2998)?
The GI50 was 2.99 µM (inactive).

And the GI50 (HCT-116)?
Its GI50 is 20.9 µM (inactive).

And the GI50 (HCT-15)?
The GI50 was 2.23 µM.

And the GI50 (HL-60)?
The GI50 was 1.79 µM (inactive).

What about the GI50 (HOP-62) of the same compound?
The GI50 was 16.6 µM (inactive).

What about the GI50 (HT-29) of the same compound?
Its GI50 is 16.1 µM (inactive).

What about the GI50 (Hs-578T) of the same compound?
The GI50 was 31.8 µM (inactive).

And the GI50 (IGROV-1)?
Its GI50 is 6.25 µM (inactive).

What about the GI50 (K562) of the same compound?
Its GI50 is 4.11 µM (inactive).

What about the GI50 (KM12) of the same compound?
Its GI50 is 13.9 µM (inactive).

What about the GI50 (LOX IMVI) of the same compound?
The GI50 was 2.5 µM (inactive).

And the GI50 (M14)?
The GI50 was 2.48 µM (inactive).

What about the GI50 (MCF7) of the same compound?
Its GI50 is 2.22 µM (inactive).

What about the GI50 (MDA-MB-231) of the same compound?
Its GI50 is 24.7 µM (inactive).

What about the GI50 (MDA-MB-435) of the same compound?
The GI50 was 14 µM (inactive).

What about the GI50 (MOLT-4) of the same compound?
Its GI50 is 0.233 µM (active).

What about the GI50 (Malme-3M) of the same compound?
Its GI50 is 11.4 µM (inactive).

What about the GI50 (NCI-H226) of the same compound?
Its GI50 is 2.55 µM (inactive).

What about the GI50 (NCI-H23) of the same compound?
Its GI50 is 5.61 µM (inactive).

What about the GI50 (NCI-H460) of the same compound?
Its GI50 is 21.4 µM (inactive).

What about the GI50 (NCI-H522) of the same compound?
Its GI50 is 1.42 µM (inactive).

What about the GI50 (NCI/ADR-RES) of the same compound?
Its GI50 is 18.8 µM (inactive).

And the GI50 (OVCAR-3)?
The GI50 was 1.77 µM (inactive).

What about the GI50 (OVCAR-4) of the same compound?
Its GI50 is 13.4 µM (inactive).

And the GI50 (OVCAR-5)?
The GI50 was 26.3 µM (inactive).

And the GI50 (OVCAR-8)?
Its GI50 is 2.74 µM (inactive).

And the GI50 (PC-3)?
The GI50 was 15.2 µM (inactive).

And the GI50 (RPMI-8226)?
The GI50 was 1.88 µM (inactive).

What about the GI50 (RXF 393) of the same compound?
The GI50 was 1.82 µM (inactive).

What about the GI50 (SF-268) of the same compound?
The GI50 was 11.9 µM (inactive).

And the GI50 (SF-295)?
Its GI50 is 18.5 µM (inactive).

And the GI50 (SF-539)?
Its GI50 is 9.64 µM (inactive).

And the GI50 (SK-MEL-28)?
Its GI50 is 10.7 µM (inactive).

And the GI50 (SK-MEL-2)?
The GI50 was 12.4 µM (inactive).

What about the GI50 (SK-MEL-5) of the same compound?
Its GI50 is 18.2 µM (inactive).

And the GI50 (SN12C)?
Its GI50 is 11.2 µM (inactive).

What about the GI50 (SNB-19) of the same compound?
The GI50 was 25.7 µM (inactive).

What about the GI50 (SNB-75) of the same compound?
The GI50 was 52.2 µM (inactive).

What about the GI50 (SR) of the same compound?
Its GI50 is 1.24 µM (inactive).

What about the GI50 (SW-620) of the same compound?
Its GI50 is 4.47 µM (inactive).

What about the GI50 (T47D) of the same compound?
The GI50 was 4.19 µM (inactive).

And the GI50 (TK-10)?
The GI50 was 6.55 µM (inactive).

And the GI50 (U-251)?
The GI50 was 4.45 µM (inactive).

And the GI50 (UACC-257)?
The GI50 was 10.9 µM (inactive).

What about the GI50 (UACC-62) of the same compound?
Its GI50 is 2.94 µM (inactive).

What about the GI50 (UO-31) of the same compound?
The GI50 was 4.18 µM (inactive).

Which GI50 (786-0) does the source give for O=C(O)[C@H](Cc1ccccc1)NCCN1CCC[C@H]1C(=O)O here?
The GI50 was > 100 µM (inactive).

What about the GI50 (A498) of the same compound?
The GI50 was 42.6 µM (inactive).

And the GI50 (A549)?
The GI50 was > 100 µM (inactive).

What about the GI50 (CAKI-1) of the same compound?
The GI50 was > 100 µM (inactive).

And the GI50 (COLO 205)?
Its GI50 is 37.6 µM (inactive).

And the GI50 (DU-145)?
The GI50 was > 100 µM (inactive).

What about the GI50 (HCT-116) of the same compound?
The GI50 was > 100 µM (inactive).

What about the GI50 (HCT-15) of the same compound?
The GI50 was 22.2 µM.

What about the GI50 (HOP-62) of the same compound?
Its GI50 is > 100 µM (inactive).

And the GI50 (HOP-92)?
Its GI50 is 1.91 µM (inactive).

And the GI50 (HT-29)?
Its GI50 is 26.2 µM (inactive).

And the GI50 (K562)?
The GI50 was 1.53 µM (inactive).

What about the GI50 (KM12) of the same compound?
The GI50 was > 100 µM (inactive).

What about the GI50 (M14) of the same compound?
Its GI50 is > 100 µM (inactive).

And the GI50 (MCF7)?
Its GI50 is > 100 µM (inactive).

What about the GI50 (MDA-MB-231) of the same compound?
The GI50 was > 100 µM (inactive).

What about the GI50 (MDA-MB-435) of the same compound?
Its GI50 is > 100 µM (inactive).

And the GI50 (MDA-N)?
The GI50 was > 100 µM (inactive).

And the GI50 (MOLT-4)?
The GI50 was 99.8 µM (inactive).

And the GI50 (Malme-3M)?
The GI50 was 49.8 µM (inactive).

What about the GI50 (NCI-H23) of the same compound?
Its GI50 is > 100 µM (inactive).

And the GI50 (NCI-H460)?
The GI50 was 42.1 µM (inactive).

And the GI50 (NCI-H522)?
Its GI50 is > 100 µM (inactive).

And the GI50 (NCI/ADR-RES)?
Its GI50 is > 100 µM (inactive).

What about the GI50 (OVCAR-3) of the same compound?
Its GI50 is > 100 µM (inactive).

And the GI50 (OVCAR-4)?
Its GI50 is 3.74 µM (inactive).

And the GI50 (OVCAR-5)?
Its GI50 is > 100 µM (inactive).

And the GI50 (OVCAR-8)?
The GI50 was > 100 µM (inactive).

What about the GI50 (PC-3) of the same compound?
The GI50 was > 100 µM (inactive).

And the GI50 (RPMI-8226)?
Its GI50 is > 100 µM (inactive).

And the GI50 (RXF 393)?
The GI50 was > 100 µM (inactive).

What about the GI50 (SF-268) of the same compound?
Its GI50 is > 100 µM (inactive).

What about the GI50 (SF-295) of the same compound?
Its GI50 is > 100 µM (inactive).

What about the GI50 (SF-539) of the same compound?
The GI50 was > 100 µM (inactive).

And the GI50 (SK-MEL-28)?
Its GI50 is > 100 µM (inactive).

What about the GI50 (SK-MEL-2) of the same compound?
The GI50 was > 100 µM (inactive).

And the GI50 (SK-MEL-5)?
Its GI50 is > 100 µM (inactive).

And the GI50 (SK-OV-3)?
Its GI50 is > 100 µM (inactive).

And the GI50 (SN12C)?
Its GI50 is > 100 µM (inactive).

What about the GI50 (SNB-19) of the same compound?
The GI50 was > 100 µM (inactive).

And the GI50 (SW-620)?
Its GI50 is 80.4 µM (inactive).

And the GI50 (T47D)?
The GI50 was > 100 µM (inactive).

And the GI50 (U-251)?
The GI50 was > 100 µM (inactive).

And the GI50 (UACC-62)?
Its GI50 is 70.8 µM (inactive).

What about the GI50 (UO-31) of the same compound?
Its GI50 is 32.4 µM (inactive).
